Consider 1 molecule from publication PMC10986179, “PCC0208057 as a small molecule inhibitor of TRPC6 in the treatment of prostate cancer” (Frontiers in Pharmacology, 2024).

The target of the assay is T1, TRPC6 (transient receptor potential canonical 6) (Homo sapiens, UniProt Q9Y210).
T1 sequence (Q9Y210 1-931): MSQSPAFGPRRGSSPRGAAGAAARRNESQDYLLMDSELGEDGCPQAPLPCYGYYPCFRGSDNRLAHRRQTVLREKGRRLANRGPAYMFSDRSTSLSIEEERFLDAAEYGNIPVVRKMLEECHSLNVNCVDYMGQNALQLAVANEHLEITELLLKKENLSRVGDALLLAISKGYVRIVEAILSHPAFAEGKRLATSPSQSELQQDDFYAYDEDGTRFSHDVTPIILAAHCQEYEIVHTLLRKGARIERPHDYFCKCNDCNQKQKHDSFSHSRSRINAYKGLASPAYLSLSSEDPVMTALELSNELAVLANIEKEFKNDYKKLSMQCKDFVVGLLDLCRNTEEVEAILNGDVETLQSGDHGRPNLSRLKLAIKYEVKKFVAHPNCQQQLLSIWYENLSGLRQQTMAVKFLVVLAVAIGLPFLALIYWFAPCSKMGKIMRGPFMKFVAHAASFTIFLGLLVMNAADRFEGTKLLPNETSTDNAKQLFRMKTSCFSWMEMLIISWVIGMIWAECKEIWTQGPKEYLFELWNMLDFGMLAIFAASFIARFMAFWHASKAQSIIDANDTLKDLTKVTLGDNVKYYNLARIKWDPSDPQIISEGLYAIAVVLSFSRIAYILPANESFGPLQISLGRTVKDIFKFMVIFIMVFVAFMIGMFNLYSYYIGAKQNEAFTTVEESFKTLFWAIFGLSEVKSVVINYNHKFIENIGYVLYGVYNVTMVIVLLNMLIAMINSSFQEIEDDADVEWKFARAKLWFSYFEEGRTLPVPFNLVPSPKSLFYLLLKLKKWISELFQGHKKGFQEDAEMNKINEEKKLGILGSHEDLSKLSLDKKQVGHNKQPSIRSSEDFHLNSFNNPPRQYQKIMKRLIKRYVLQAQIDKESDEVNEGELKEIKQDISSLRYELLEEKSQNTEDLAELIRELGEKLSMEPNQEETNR
Description: Fluo-4 Ca2+ assay in TRPC6-HEK293 cells; also electrophysiology of GSK1702934A-evoked TRPC6 currents. It counts as cell-based.

In general, IC50 refers to the midpoint of a concentration-inhibition curve. A lower IC50 goes with greater potency in that assay. Molecule `COc1cccc2sc(N(CCN3CCCC3)C(=O)c3ccc4c(c3)OCO4)nc12` [PCC0208057] registered an IC50 of 2440 nM.
